Measurements: patent US8975251B2, “Methods of improving cognitive functions” (Bar-Ilan University, priority 2009, dated 2015)
“Also recorded” adds a separate entry of the source. Counter-ions that a name gives are not always drawn.

Tests used:
[1] = tested on: patients having acute exacerbation of schizophrenia; assay: Clinical trial, Brief Assessment of Cognition in Schizophrenia (BACS); assay type: in vivo, human; details: for BACS mean change from baseline at Day 42, Mean (SD): 42 days; for BACS Difference in LS-mean vs. Risperidone (ANCOVA) / BACS Difference in LS-means vs. Placebo (ANCOVA): Day 42; for cognitive functions as compared to the placebo: schizophrenic patients, human clinical trial
Description: The trial was conducted at forty sites located in the USA, Europe and India. For the trial 363 patients were recruited and randomized equally. Drugs (BL-1020, 10 mg/day; BL-1020, 20-30 mg/day; risperidone, 2-8 mg/day and placebo) have been administered to designated patients (double blinded) daily over a period of 42 days.
Key secondary efficacy measures included the Clinical Global Impression of Severity (CGI-S), the Clinical Global Impression of Change (CGI-C) from baseline, and effect on cognition as measured by the Brief Assessment of Cognition in Schizophrenia (BACS). Risperidone at a dose of 2-8 mg was included as a positive control to validate the study results.
Assessments of cognitive functions of treated patients have been performed on day zero (baseline) and on day 42 (end of study), using the test battery designed for use in patients with schizophrenia [Richard Keefe (Ed.), Brief Assessment of Cognition in Schizophrenia (BACS) Version 3.0, Duke University Medical Center, 1999; and Keefe et al., Schizophrenia Research, 68: 283-297, 2004]. The battery consists of brief assessments of processing speed, reasoning and problem solving and verbal and working memory. A composite score is obtained by summing the z-scores of six measures (verbal memory, digit sequencing, token motor task, fluency, symbol coding and Tower of London).

[2] = tested on: PCP-induced reversal learning deficit; assay: PCP-induced reversal learning task in rats; assay type: in vivo, rat
Description: Antipsychotic drugs: BL-1020 (perphenazine 4-aminobutyrate, mesylate salt; BioLineRx Ltd., Israel; administered per os); risperidone (Sigma, UK; administered intra-peritoneally); and perphenazine (Sigma, Israel; administered per os).
GABAA antagonists: picrotoxin (Sigma, UK; administered intra-peritoneally); and bicuculline (Sigma, UK; administered intra-peritoneally).
Female hooded-Lister rats (Charles River, UK) were housed in groups of five under standard laboratory conditions under a 12 hr diurnal cycle. Rats were maintained at approx 85% of free-feeding body weight average (250 grams) for the duration of the study.
Following habituation to the operant chambers, rats were trained to respond for food on an FR1 (Fixed Ratio 1) schedule of reinforcement with active levers active, as described by Abdul-Monim et al. (J. Psychopharmacology 17: 57-65, 2003). When a proper response for food was established the rats were trained to press either the left or right lever (only one of levers was active) for food delivery. The active lever was varied from day to day using a pseudorandom Gellerman schedule, which randomly assigns either the left or right lever as active, thus avoiding generation of a lever bias. Each session lasted 20 minutes and counts were recorded on each lever.
Following completion of the first phase of training (within about two weeks) the rats were trained to respond ter food according to the position of a visual cue (a lit LED). Half of the rats were trained to press the lever under the lit LED in order to receive a food reward. The other half of the rats were trained on the opposite contingency (i.e., to press the lever under the non-lit LED). Each training session began with illumination of the house-light. After three seconds both levers, together with the visual cue, were presented. The cue was presented for one second. […] The levers were then retracted and the house light was extinguished for a three-second time-out period, during which the pellet was consumed (if a correct response had been made). The house-light was then turned on again and the cycle repeated. Following 128 lever presses (which lasted approximately 30 minutes) the training session was terminated.
Each rat had one training session per day. Rats were required to make at least 115 responses on the correct lever (90% correct responding) on at least three consecutive days (which was generally achieved within two weeks). The contingency (visual cue, i.e. LED on or off, relative to active lever) remained constant during this period, though the position of the active lever varied from day to day according to a pseudo-random Gellerman schedule.
Subsequently, rats were trained until they again reached criterion on the opposite contingency (which was generally achieved within two weeks)). Rats achieved criterion at the same rate irrespective of whether they responded to one rule or the other. […]
Following a 7 day drug (PCP)-free period the rats were treated with test agents (antipsychotic drugs and GABAA-receptor antagonists). Sixty minutes later the rats were exposed for five-minutes (“initial phase”) to the same contingency (cue position relative to active lever) as was during the operant training session and their responses (pressing on correct and incorrect levers) were recorded. Following a two-minutes recess the animals were exposed for five-minutes to a reversed contingency (“reversal phase”) during which their responses (pressing on correct and incorrect levers) were recorded. […]

NCCCC(=O)OCCN1CCN(CCCN2c3ccccc3Sc3ccc(Cl)cc32)CC1 [BL-1020, 4-amino-butyric acid 2-{4-[3-(2-chloro-phenothiazin-10-yl)-propyl]piperazin-1-yl}-ethyl ester] was tested, and the “BACS test mean score at Baseline, Mean (SD)” value (“BACS test mean score … (SD)” below) ([1]; BL-1020 10 mg/day group, day 0, n = 90) was 16.7 (15.5), the “BACS mean change from baseline at Day 42, Mean (SD)” value (shortened to “BACS mean change … (SD)”) ([1]; BL-1020 10 mg/day) was 5.1 (7.1) and the “BACS Difference in LS-mean vs. Risperidone (ANCOVA)” value ([1]; BL-1020 10 mg/day) was 0.11. The “BACS Difference in LS-means vs. Placebo (ANCOVA)” value ([1]; BL-1020 10 mg/day) was 0.63, the “BACS test mean score … (SD)” value ([1]; BL-1020 30 mg/day group, day 0, n = 89) was 15.3 (15.5) and the “BACS mean change … (SD)” value ([1]; BL-1020 30 mg/day) was 8.3 (8.5). For the same molecule, the “BACS Difference in LS-mean vs. Risperidone (ANCOVA)” value ([1]; BL-1020 30 mg/day) was 3.40, the “BACS Difference in LS-means vs. Placebo (ANCOVA)” value ([1]; BL-1020 30 mg/day) was 3.92 and the BACS score increase ([1]; BL-1020 high dose 20-30 mg/day, after 42 days) was 8.3 points. The “cognitive functions as compared to the placebo” value [1] was “significantly improved” and the “effect on PCP-induced reversal learning deficit (percent correct response)” value (“effect … (percent correct response)” for short) ([2]; BL-1020 3 mg/kg per os, 60 min before task, p<0.01, 3 mg/kg) was “significantly improved; also recorded: significant improvement”.

For c1ccc(C2(N3CCCCC3)CCCCC2)cc1 [PCP, phencyclidine hydrochloride], the “percent correct responding animals in the reversal learning task” value ([2]; PCP 2 mg/kg intra-peritoneally twice daily for 7 days, p<0.01) was “significantly reduced”.

For Cc1nc2n(c(=O)c1CCN1CCC(c3noc4cc(F)ccc34)CC1)CCCC2 [Risperidone, risperidone, reference compound], the “BACS test mean score … (SD)” value ([1]; Risperidone 8 mg/day group, day 0, n = 91) was 13.5 (12.3), the “BACS mean change … (SD)” value ([1]; Risperidone 8 mg/day) was 5.7 (6.2) and the “BACS Difference in LS-means vs. Placebo (ANCOVA)” value ([1]; Risperidone 8 mg/day) was 0.52. The “cognitive functions as compared to the placebo” value [1] was “failed to improve cognitive functions”.

For OCCN1CCN(CCCN2c3ccccc3Sc3ccc(Cl)cc32)CC1 [perphenazine], the “effect … (percent correct response)” value ([2]; perphenazine 2.49 mg/kg per os (equivalent to perphenazine moiety in 3 mg/kg BL-1020)) was “did not significantly improve; also recorded: failed to improve cognitive functions”.

In the case of picrotoxin, the “effect on BL-1020 improvement of PCP-induced reversal learning deficit” value ([2]; picrotoxin 0.5 mg/kg co-administered with BL-1020 3 mg/kg, p<0.001) is reported as “negated the BL-1020 effect” and the “effect … (percent correct response)” value ([2]; picrotoxin 0.25, 0.5 and 1 mg/kg intra-peritoneally) is reported as “did not significantly improve”.
